In ChEMBL document CHEMBL4665751, “Discovery of Clinical Candidate (5-(3-(4-Chlorophenoxy)prop-1-yn-1-yl)-3-hydroxypicolinoyl)glycine, an Orally Bioavailable Prolyl Hydroxylase Inhibitor for the Treatment of Anemia” (J Med Chem, 2020):

Key:
Homo sapiens [1] = species on record: Homo sapiens; assay: Selectivity index, ratio of IC50 for KDM3A (unknown origin) in presence of peptide substrate incubated for 30 mins by alpha screen assay to IC50 for PHD2 (unknown origin) by O-phenyl enediamine(OPD) based fluorescence assay
[2] = Intrinsic clearance in mouse liver microsome at 1 uM preincubated for 5 mins followed by NADPH addition measured up to 120 mins by LC-MS/MS analysis; assay type: ADME; settings: microsomes, 2 h, time <=125 min
[3] = Half-life in rat hepatocytes at 100 uM incubated up to 120 mins by LC-MS/MS analysis; assay type: ADME, cell-based, Hepatocyte
Cytochrome P450 1A2 = target: T1, Cytochrome P450 1A2 (Homo sapiens, UniProt P05177); assay: Inhibition of CYP1A2 (unknown origin) using phenacetin as substrate preincubated for 5 mins followed by addition of NADPH measured after 20 mins by LC-MS/MS analysis; assay type: ADME
T1 sequence (P05177 whole entry): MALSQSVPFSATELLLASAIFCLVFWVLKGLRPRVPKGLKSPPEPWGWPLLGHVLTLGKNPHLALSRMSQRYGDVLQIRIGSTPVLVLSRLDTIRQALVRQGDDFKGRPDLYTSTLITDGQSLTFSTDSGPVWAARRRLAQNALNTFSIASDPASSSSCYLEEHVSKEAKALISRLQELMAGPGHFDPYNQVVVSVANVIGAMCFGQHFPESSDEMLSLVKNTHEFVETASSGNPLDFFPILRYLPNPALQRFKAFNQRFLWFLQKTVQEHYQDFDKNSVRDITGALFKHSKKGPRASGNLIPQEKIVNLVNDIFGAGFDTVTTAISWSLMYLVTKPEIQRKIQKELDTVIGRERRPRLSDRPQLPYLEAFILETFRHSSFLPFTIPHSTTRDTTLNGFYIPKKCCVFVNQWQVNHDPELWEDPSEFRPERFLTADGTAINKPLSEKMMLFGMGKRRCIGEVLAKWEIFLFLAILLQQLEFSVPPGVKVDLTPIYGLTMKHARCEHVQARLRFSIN

[4] = Apparent volume of distribution in Beagle dog at 2 mg/kg, ig by LC-MS/MS analysis; assay type: ADME, organism-based, Canis lupus familiaris; settings: in vivo, po
[5] = Half-life in human L02 cells at 100 uM incubated up to 120 mins by LC-MS/MS analysis; assay type: ADME, cell-based
[6] = Intrinsic clearance in dog liver microsome at 1 uM preincubated for 5 mins followed by NADPH addition measured up to 120 mins by LC-MS/MS analysis; assay type: ADME, Canis lupus familiaris; settings: microsomes, 2 h, time <=125 min
[7] = Acute toxicity in Sprague-Dawley rat assessed as change in ratio of liver to body weight at 15 to 200 mg/kg, po administered every alternate days for 2 weeks measured on day 14; assay type: organism-based; settings: in vivo, 336 h, dose 15-200 mg/kg, time 14 day
[8] = Intrinsic clearance in monkey liver microsome at 1 uM preincubated for 5 mins followed by NADPH addition measured up to 120 mins by LC-MS/MS analysis; assay type: ADME, Macaca mulatta; settings: rhesus monkey, microsomes, 2 h, time <=125 min
Egl nine homolog 1 [9] = target: T2, Egl nine homolog 1 (Homo sapiens, UniProt Q9GZT9); assay: Inhibition of PHD2 in human Hep3B cells assessed as increase in EPO expression measured after 24 hrs by ELISA; assay type: cell-based; settings: dose microM 5-50, time 24.0 hrs
[10] = MRT (0 to infinity) in Beagle dog at 0.5 mg/kg, iv by LC-MS/MS analysis; assay type: ADME, organism-based, Canis lupus familiaris; settings: in vivo
[11] = Half-life in mouse liver microsome at 1 uM preincubated for 5 mins followed by NADPH addition measured up to 120 mins by LC-MS/MS analysis; assay type: ADME; settings: liver microsomes, time <=125 min
[12] = AUC (0 to t) in Beagle dog at 2 mg/kg, ig by LC-MS/MS analysis; assay type: ADME, organism-based, Canis lupus familiaris; design: dose 2 mg/kg; settings: in vivo, po
Mus musculus [13] = assay: Antianemic activity in cisplatin-induced C57BL/6 mouse anemia model assessed as improvement in anemia at 10 mg/kg, po administered every other day for 1 month; assay type: functional; settings: time 1 months, 730 h
[14] = In vivo inhibition of PHD2 in C57BL/6 mouse assessed as increase in EPO plasma level by measuring EPO level at 15 mg/kg, iv measured after 4 hrs by ELISA; assay type: functional
Mus musculus [15] = assay: Antianemic activity in cisplatin-induced C57BL/6 mouse anemia model assessed as improvement in anemia at 25 mg/kg, po administered every other day for 1 month; assay type: functional; settings: time 1 months, 730 h
[16] = Acute toxicity in female Sprague-Dawley rat assessed as change in ratio of uterus with cervix to body weight at 15 to 200 mg/kg, po administered every alternate days for 2 weeks measured on day 14; assay type: organism-based; settings: in vivo, 336 h, dose 15-200 mg/kg, time 14 day
[17] = Acute toxicity in male Sprague-Dawley rat assessed as change in ratio of testis to body weight at 15 to 200 mg/kg, po administered every alternate days for 2 weeks measured on day 14; assay type: organism-based; settings: in vivo, 336 h, dose 15-200 mg/kg, time 14 day
Homo sapiens [18] = species on record: Homo sapiens; assay: Selectivity index, ratio of IC50 for PHD1 (unknown origin) by O-phenyl enediamine(OPD) based fluorescence assay to IC50 for PHD2 (unknown origin) by O-phenyl enediamine(OPD) based fluorescence assay
[19] = Half-life in Beagle dog at 2 mg/kg, ig by LC-MS/MS analysis; assay type: ADME, organism-based, Canis lupus familiaris; settings: in vivo, po
[20] = Acute toxicity in Sprague-Dawley rat assessed as change in ratio of brain to body weight at 15 to 200 mg/kg, po administered every alternate days for 2 weeks measured on day 14; assay type: organism-based; settings: in vivo, 336 h, dose 15-200 mg/kg, time 14 day
[21] = Half-life in Sprague-Dawley rat at 1 mg/kg, iv by LC-MS/MS analysis; assay type: ADME, organism-based; settings: in vivo
Egl nine homolog 1 [22] = target: T2, Egl nine homolog 1; assay: Inhibition of PHD2 in human Hep3B cells assessed as upregulation of EPO mRNA expression measured after 10 hrs by Trizol reagent based qRT-PCR analysis; assay type: cell-based; settings: dose microM 5-50, time 10.0 hrs
Cytochrome P450 3A4 = Cytochrome P450 3A4 (Homo sapiens, UniProt P08684); assay: Inhibition of CYP3A4 (unknown origin) using midazolam as substrate preincubated for 5 mins followed by addition of NADPH measured after 20 mins by LC-MS/MS analysis; assay type: ADME
[23] = AUC (0 to infinity) in Sprague-Dawley rat at 2 mg/kg, ig by LC-MS/MS analysis; assay type: ADME, organism-based; design: time infinity, route […], dose 2 mg/kg; settings: in vivo, po
[24] = Clearance in Beagle dog at 0.5 mg/kg, iv by LC-MS/MS analysis; assay type: ADME, organism-based, Canis lupus familiaris; settings: in vivo
[25] = Clearance in Beagle dog at 2 mg/kg, ig by LC-MS/MS analysis; assay type: ADME, organism-based, Canis lupus familiaris; settings: in vivo, po
[26] = Half-life in mouse hepatocytes at 100 uM incubated up to 120 mins by LC-MS/MS analysis; assay type: ADME, cell-based, Hepatocyte
[27] = Half-life in dog liver microsome at 1 uM preincubated for 5 mins followed by NADPH addition measured up to 120 mins by LC-MS/MS analysis; assay type: ADME, Canis lupus familiaris; settings: liver microsomes, time <=125 min
Cytochrome P450 2C9 = Cytochrome P450 2C9 (Homo sapiens, UniProt P11712); assay: Inhibition of CYP2C9 (unknown origin) using diclofenac as substrate preincubated for 5 mins followed by addition of NADPH measured after 20 mins by LC-MS/MS analysis; assay type: ADME
Cytochrome P450 2D6 = Cytochrome P450 2D6 (Homo sapiens, UniProt P10635); assay: Inhibition of CYP2D6 (unknown origin) using dextromethorphan as substrate preincubated for 5 mins followed by addition of NADPH measured after 20 mins by LC-MS/MS analysis; assay type: ADME
Cytochrome P450 2D6, sequence (P10635 whole entry): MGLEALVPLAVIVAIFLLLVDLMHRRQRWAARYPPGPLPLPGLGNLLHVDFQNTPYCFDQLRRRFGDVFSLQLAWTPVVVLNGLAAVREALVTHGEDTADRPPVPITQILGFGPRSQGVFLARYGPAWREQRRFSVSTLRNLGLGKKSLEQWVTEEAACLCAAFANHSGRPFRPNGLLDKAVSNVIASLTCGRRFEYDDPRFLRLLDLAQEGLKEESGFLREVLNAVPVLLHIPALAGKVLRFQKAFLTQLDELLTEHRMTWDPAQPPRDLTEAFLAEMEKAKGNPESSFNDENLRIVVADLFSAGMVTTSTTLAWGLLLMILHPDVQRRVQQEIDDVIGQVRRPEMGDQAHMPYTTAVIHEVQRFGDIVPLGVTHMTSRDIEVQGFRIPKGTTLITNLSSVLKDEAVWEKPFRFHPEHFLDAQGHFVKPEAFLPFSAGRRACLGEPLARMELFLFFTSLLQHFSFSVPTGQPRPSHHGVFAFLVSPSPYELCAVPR

T2 sequence (Q9GZT9 2-426 limits assumed): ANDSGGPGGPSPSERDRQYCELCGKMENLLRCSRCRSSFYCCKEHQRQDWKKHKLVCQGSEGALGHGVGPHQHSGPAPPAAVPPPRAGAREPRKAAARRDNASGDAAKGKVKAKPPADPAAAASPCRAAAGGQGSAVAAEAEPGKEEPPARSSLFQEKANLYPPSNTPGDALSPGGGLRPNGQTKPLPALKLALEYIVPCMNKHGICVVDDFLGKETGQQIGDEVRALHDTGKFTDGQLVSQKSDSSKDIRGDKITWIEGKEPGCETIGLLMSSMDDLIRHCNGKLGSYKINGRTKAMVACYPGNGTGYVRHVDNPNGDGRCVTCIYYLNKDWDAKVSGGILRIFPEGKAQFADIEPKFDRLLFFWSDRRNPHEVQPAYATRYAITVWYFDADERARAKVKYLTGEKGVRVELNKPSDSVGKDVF
Cytochrome P450 3A4, sequence (P08684 whole entry): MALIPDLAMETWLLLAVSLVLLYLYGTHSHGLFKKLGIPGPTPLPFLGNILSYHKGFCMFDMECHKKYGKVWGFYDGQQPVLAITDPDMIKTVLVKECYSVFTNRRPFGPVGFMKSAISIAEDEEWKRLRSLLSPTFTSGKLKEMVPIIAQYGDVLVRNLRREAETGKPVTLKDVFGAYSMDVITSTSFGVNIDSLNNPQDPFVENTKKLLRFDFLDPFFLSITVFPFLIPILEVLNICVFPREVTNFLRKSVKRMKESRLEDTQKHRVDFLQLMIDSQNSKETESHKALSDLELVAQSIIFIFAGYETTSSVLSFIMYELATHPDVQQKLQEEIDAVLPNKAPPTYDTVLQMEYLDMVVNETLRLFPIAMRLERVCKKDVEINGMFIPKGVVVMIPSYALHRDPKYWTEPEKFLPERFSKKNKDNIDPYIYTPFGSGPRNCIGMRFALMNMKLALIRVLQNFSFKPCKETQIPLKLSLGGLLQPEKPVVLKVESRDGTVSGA
Cytochrome P450 2C9, sequence (P11712 whole entry): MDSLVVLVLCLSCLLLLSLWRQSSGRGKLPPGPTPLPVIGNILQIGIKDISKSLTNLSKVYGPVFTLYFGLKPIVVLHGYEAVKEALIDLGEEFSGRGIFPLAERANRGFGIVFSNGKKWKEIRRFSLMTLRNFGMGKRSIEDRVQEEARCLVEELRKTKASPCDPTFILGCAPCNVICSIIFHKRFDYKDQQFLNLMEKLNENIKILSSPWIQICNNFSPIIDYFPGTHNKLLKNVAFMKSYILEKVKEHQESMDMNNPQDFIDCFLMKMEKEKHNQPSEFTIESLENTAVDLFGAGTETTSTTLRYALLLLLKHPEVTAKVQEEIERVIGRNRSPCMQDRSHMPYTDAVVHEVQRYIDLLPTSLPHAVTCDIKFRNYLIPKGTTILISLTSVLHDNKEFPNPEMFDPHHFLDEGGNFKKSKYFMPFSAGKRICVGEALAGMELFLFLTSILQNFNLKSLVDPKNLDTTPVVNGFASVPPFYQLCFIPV

O=C(O)CNC(=O)c1ncc(C#CCOc2ccc(Cl)cc2)cc1O [DDO-3055]
Ratio IC50 (Homo sapiens [1]): > 1560 | CLH [2]: < 0.01 mL/min/kg | half-life at 100 µM [3]: 0.538 h | IC50 (Cytochrome P450 1A2): > 30 µM | Vz [4]: 8.417 L/kg | half-life at 100 µM [5]: 17.7 h | CLH [6]: < 0.01 mL/min/kg | Activity [7]: Non-Toxic | CLH [8]: < 0.013 mL/min/kg | inhibition (Egl nine homolog 1 [9]): Dose-dependent effect | MRT inf [10]: 2.27 h | half-life at 1 µM [11]: > 2.32 h | AUC(0-t) [12]: 1360 ng·h/mL | Activity (Mus musculus [13]): 83.3% | Activity [14]: >1000 pg/mL | Activity (Mus musculus [15]): 104.5% | Activity [16]: Non-Toxic | Activity [17]: Non-Toxic | Ratio IC50 (Homo sapiens [18]): 29 | half-life [19]: 4.19 h | Activity [20]: Non-Toxic | half-life [21]: 8.43 h | inhibition (Egl nine homolog 1 [22]): Dose-dependent effect | IC50 (Cytochrome P450 3A4): > 30 µM | AUC(0-inf) [23]: 5420 ng·h/mL | clearance [24]: 13.2 mL/min/kg | CL/F [25]: 25.5 mL/min/kg | half-life at 100 µM [26]: 8.68 min | half-life at 1 µM [27]: > 2.32 h | IC50 (Cytochrome P450 2C9): > 30 µM | IC50 (Cytochrome P450 2D6): > 30 µM
